Results from US10231954B2, “Neurodegenerative therapies” (LYTIX BIOPHARMA AS, priority 2014, dated 2019).

Tests used:
Assay type in all cases: biochemical
[1] = target: T1, p38d MAPK (Homo sapiens, UniProt O15264); assay: Kinase profiling p38d MAPK; conditions: for residual kinase activity, p38d MAPK: 100 micromolar inhibitor concentration, 100 is no change
T1 sequence (O15264 1-365): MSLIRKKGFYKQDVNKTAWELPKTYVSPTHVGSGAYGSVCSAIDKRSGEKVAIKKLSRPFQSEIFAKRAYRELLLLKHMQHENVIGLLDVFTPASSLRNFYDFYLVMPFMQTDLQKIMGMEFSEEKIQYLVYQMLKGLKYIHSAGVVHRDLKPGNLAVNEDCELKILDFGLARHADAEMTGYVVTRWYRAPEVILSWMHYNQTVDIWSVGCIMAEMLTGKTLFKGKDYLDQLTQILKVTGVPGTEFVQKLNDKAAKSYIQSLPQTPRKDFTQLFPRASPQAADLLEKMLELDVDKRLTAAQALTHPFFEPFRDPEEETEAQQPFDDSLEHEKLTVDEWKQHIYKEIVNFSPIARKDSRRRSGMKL
Text: (§1) Any value less that 25 is considered to be highly significant inhibition.

[2] = target: RSK1 (Homo sapiens, UniProt Q15418); assay: Kinase profiling RSK1; conditions: for residual kinase activity, RSK1: 100 micromolar inhibitor concentration, 100 is no change
Text: as §1

[3] = target: T2, TTK (Homo sapiens, UniProt P33981); assay: Kinase profiling TTK; conditions: for residual kinase activity, TTK: 100 micromolar inhibitor concentration, 100 is no change
T2 sequence (P33981 1-857): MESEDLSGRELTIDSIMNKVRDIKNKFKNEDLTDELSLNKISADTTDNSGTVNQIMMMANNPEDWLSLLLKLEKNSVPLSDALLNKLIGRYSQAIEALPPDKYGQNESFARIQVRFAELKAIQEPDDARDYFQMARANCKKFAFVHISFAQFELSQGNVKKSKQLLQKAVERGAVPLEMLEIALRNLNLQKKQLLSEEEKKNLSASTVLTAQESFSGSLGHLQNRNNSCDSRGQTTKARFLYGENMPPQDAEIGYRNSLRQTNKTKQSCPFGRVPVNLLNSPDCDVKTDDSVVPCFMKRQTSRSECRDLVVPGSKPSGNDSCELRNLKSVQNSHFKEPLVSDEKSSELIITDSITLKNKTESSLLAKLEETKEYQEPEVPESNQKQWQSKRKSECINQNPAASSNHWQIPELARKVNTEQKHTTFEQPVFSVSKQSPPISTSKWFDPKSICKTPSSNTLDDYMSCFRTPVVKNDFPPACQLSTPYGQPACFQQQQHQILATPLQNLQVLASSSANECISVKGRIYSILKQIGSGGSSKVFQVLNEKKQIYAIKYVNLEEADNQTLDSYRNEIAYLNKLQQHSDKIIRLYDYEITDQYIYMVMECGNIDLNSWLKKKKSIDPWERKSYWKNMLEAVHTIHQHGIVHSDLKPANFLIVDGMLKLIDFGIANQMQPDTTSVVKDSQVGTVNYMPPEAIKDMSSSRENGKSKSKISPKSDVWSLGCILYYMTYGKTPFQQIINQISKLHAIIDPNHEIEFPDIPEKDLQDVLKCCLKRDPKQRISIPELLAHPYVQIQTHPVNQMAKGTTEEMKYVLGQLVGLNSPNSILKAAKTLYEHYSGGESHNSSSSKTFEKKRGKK
Text: as §1

[4] = target: SYK (Homo sapiens, UniProt P43405); assay: Kinase profiling SYK; conditions: for residual kinase activity, SYK: 100 micromolar inhibitor concentration, 100 is no change
Text: as §1

[5] = target: ERK2 (Homo sapiens, UniProt P28482); assay: Kinase profiling ERK2; conditions: for residual kinase activity, ERK2: 100 micromolar inhibitor concentration, 100 is no change
Sequence of ERK2 (P28482 whole entry, species assumed): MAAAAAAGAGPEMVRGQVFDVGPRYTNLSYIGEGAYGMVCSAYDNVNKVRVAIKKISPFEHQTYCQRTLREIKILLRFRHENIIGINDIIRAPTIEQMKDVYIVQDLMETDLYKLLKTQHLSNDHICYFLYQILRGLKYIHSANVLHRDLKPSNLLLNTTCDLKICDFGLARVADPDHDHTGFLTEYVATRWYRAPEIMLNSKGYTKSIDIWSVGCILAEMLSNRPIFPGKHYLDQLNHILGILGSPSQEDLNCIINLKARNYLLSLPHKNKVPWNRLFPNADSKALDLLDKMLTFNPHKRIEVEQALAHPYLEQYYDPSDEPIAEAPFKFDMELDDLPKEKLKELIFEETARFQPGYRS
Text: as §1

[6] = target: JNK2 (Homo sapiens, UniProt P45984); assay: Kinase profiling JNK2; conditions: for residual kinase activity, JNK2: 100 micromolar inhibitor concentration, 100 is no change
Sequence of JNK2 (P45984 whole entry, species assumed): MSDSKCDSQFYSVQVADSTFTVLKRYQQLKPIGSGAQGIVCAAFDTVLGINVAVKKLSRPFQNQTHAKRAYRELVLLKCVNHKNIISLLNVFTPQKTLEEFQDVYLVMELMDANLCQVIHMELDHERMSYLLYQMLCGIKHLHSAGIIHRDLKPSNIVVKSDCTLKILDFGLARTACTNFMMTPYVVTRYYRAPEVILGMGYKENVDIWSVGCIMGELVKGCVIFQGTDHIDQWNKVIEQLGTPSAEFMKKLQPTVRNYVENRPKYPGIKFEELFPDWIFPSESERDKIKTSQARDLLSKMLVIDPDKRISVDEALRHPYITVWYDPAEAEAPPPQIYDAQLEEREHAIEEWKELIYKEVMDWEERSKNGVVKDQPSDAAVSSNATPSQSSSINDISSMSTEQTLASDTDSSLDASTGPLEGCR
Text: as §1

[7] = target: T3, p38g MAPK (Homo sapiens, UniProt P53778); assay: Kinase profiling p38g MAPK; conditions: for residual kinase activity, p38g MAPK: 100 micromolar inhibitor concentration, 100 is no change
T3 sequence (P53778 1-367): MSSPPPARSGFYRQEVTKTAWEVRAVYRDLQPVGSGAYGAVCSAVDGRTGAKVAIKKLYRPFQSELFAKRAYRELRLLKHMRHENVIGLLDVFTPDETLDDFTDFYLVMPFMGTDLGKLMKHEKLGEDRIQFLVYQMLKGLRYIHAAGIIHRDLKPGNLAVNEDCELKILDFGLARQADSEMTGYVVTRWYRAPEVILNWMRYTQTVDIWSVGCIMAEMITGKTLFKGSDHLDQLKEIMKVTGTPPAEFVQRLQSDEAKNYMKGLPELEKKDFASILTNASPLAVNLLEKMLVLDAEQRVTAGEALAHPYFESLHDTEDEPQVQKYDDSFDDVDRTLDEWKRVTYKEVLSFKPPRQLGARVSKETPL
Text: as §1

[8] = target: DYRK1A (Homo sapiens, UniProt Q13627); assay: DYRK 1A assay (kinase profiling); conditions: for residual kinase activity, DYRK1A: 100 micromolar inhibitor concentration, 100 is no change
Method: Assays are stopped by addition of 5 μl of 0.5 M (3%) orthophosphoric acid and then harvested onto P81 Unifilter plates with a wash buffer of 50 mM orthophosphoric acid.
as §1

[9] = target: PKCa (Homo sapiens, UniProt P17252); assay: Kinase profiling PKCa; conditions: for residual kinase activity, PKCa: 100 micromolar inhibitor concentration, 100 is no change
Text: as §1

[10] = target: EPH-A2 (Homo sapiens, UniProt P29317); assay: Kinase profiling EPH-A2; conditions: for residual kinase activity, EPH-A2: 100 micromolar inhibitor concentration, 100 is no change
Text: as §1

[11] = target: PKBb (Homo sapiens, UniProt P31751); assay: Kinase profiling PKBb; conditions: for residual kinase activity, PKBb: 100 micromolar inhibitor concentration, 100 is no change
Sequence of PKBb (P31751 whole entry): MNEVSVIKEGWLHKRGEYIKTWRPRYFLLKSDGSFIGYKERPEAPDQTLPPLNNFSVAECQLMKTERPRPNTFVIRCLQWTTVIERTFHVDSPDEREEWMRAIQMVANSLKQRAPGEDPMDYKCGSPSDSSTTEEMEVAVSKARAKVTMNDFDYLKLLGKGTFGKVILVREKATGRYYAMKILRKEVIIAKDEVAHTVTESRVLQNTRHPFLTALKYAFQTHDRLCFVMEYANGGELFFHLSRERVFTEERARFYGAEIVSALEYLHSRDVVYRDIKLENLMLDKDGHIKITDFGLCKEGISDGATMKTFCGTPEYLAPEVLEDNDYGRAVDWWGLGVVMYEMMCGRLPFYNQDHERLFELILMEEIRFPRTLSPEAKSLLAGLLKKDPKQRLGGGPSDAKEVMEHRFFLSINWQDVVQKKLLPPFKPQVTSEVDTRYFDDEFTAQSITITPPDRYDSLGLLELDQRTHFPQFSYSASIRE
Text: as §1

[12] = target: NEK6 (Homo sapiens, UniProt Q9HC98); assay: Kinase profiling NEK6; conditions: for residual kinase activity, NEK6: 100 micromolar inhibitor concentration, 100 is no change
Sequence of NEK6 (Q9HC98 whole entry, species assumed): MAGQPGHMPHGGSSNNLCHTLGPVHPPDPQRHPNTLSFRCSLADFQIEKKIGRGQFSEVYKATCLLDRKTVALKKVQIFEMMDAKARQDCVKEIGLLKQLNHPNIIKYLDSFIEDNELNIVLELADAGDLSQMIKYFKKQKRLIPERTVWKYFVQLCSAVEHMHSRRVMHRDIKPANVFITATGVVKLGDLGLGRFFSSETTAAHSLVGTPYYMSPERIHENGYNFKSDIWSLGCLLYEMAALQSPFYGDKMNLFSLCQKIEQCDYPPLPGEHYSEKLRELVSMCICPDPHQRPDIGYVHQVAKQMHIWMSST
Text: as §1

[13] = tested on: CK2; assay: Kinase profiling CK2
Text: as §1

[14] = target: IGF-1R (Homo sapiens, UniProt P08069); assay: Kinase profiling IGF-1R; conditions: for residual kinase activity, IGF-1R: 100 micromolar inhibitor concentration, 100 is no change
Text: as §1

[15] = target: SmMLCK (Homo sapiens, UniProt Q15746); assay: Kinase profiling SmMLCK; conditions: for residual kinase activity, SmMLCK: 100 micromolar inhibitor concentration, 100 is no change
Sequence of SmMLCK (Q15746 923-1914): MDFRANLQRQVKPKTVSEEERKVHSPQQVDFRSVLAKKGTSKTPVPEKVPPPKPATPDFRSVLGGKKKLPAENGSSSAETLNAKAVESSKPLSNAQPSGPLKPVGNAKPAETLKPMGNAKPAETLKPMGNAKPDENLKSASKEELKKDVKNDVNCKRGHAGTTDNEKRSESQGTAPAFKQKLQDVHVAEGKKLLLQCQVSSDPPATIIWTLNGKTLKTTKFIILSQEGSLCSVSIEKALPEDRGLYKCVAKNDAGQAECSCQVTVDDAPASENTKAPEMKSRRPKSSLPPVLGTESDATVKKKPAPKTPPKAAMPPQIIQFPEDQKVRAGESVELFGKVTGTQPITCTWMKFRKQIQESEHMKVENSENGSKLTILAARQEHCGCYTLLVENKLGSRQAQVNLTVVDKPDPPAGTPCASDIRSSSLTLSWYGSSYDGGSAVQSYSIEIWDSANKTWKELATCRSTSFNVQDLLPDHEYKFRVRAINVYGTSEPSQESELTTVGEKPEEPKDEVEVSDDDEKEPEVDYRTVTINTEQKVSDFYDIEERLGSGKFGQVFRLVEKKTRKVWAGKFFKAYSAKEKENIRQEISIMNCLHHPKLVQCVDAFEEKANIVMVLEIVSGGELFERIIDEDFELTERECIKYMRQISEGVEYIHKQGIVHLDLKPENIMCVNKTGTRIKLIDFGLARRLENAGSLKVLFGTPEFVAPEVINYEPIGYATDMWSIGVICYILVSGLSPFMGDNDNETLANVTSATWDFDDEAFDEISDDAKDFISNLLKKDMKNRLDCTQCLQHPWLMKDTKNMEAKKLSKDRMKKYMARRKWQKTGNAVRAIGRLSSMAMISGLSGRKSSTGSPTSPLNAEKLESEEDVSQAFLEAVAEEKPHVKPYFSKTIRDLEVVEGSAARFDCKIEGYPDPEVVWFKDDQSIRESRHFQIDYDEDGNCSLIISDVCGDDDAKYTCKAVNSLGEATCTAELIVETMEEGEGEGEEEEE

[16] = target: MSK1 (Homo sapiens, UniProt O75582); assay: Kinase profiling MSK1; conditions: for residual kinase activity, MSK1: 100 micromolar inhibitor concentration, 100 is no change
Sequence of MSK1 (O75582 whole entry, species assumed): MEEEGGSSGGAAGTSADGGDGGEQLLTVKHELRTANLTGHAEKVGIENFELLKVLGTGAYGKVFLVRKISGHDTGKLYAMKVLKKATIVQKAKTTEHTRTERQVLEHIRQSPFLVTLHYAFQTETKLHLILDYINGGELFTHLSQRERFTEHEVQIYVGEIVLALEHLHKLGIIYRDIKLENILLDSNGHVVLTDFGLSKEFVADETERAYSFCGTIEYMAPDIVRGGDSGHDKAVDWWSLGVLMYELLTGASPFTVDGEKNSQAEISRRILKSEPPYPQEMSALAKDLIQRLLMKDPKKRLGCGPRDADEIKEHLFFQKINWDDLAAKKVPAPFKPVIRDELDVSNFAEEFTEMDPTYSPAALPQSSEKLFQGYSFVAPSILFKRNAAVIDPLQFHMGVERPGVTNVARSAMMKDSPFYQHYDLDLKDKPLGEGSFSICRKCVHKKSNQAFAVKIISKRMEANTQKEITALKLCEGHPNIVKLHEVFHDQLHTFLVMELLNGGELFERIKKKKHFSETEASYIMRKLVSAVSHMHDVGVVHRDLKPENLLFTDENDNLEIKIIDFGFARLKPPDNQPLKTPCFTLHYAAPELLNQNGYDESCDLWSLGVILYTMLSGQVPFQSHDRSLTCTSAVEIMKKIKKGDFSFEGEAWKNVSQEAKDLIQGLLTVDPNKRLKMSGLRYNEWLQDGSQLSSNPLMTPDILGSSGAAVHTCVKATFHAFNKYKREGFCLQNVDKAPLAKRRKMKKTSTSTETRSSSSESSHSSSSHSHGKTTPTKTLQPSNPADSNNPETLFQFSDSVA
Text: as §1

[17] = target: ERK1 (Homo sapiens, UniProt P27361); assay: Kinase profiling ERK1; conditions: for residual kinase activity, ERK1: 100 micromolar inhibitor concentration, 100 is no change
Sequence of ERK1 (P27361 whole entry, species assumed): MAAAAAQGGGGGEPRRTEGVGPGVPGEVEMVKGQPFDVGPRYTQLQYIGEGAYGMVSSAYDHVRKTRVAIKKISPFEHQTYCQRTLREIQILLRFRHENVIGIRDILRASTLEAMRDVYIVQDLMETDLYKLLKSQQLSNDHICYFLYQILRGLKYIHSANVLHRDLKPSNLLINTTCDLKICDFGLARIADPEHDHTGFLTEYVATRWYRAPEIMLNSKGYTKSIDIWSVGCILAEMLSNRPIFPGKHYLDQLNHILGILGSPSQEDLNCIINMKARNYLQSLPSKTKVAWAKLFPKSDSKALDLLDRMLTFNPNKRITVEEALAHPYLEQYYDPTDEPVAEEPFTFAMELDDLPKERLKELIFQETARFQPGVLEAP
Text: as §1

[18] = target: Lck (Homo sapiens, UniProt P06239); assay: Kinase profiling Lck; conditions: for residual kinase activity, Lck: 100 micromolar inhibitor concentration, 100 is no change
Sequence of Lck (P06239 whole entry, species assumed): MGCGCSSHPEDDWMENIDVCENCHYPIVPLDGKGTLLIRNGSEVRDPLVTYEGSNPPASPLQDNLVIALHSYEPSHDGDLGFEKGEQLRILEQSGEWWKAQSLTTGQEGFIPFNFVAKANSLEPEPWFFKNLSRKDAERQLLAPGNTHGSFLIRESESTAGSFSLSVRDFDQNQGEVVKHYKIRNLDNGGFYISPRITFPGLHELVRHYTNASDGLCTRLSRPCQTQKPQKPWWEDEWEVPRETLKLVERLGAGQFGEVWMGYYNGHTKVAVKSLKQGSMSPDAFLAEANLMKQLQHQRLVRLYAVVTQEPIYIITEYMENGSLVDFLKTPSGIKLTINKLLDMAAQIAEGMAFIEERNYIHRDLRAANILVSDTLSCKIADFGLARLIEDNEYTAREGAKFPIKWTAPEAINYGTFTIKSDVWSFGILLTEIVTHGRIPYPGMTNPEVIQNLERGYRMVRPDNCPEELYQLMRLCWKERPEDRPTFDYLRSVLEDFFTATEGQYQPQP
Text: as §1

[19] = target: HER4 (Homo sapiens, UniProt Q15303); assay: Kinase profiling HER4; conditions: for residual kinase activity, HER4: 100 micromolar inhibitor concentration, 100 is no change
Text: as §1

[20] = target: JAK2 (Homo sapiens, UniProt O60674); assay: Kinase profiling JAK2; conditions: for residual kinase activity, JAK2: 100 micromolar inhibitor concentration, 100 is no change
Text: as §1

[21] = target: PKA (Homo sapiens, UniProt P17612); assay: Kinase profiling PKA; conditions: for residual kinase activity, PKA: 100 micromolar inhibitor concentration, 100 is no change
Text: as §1

[22] = 100 micromolar inhibitor concentration, 100 is no change

CC(=O)Nc1cccc(NC(=O)c2nc3ccc(O)cc3s2)c1 [Compound 03-07, N-(3-acetamidophenyl)-6-hydroxybenzo[d]thiazole-2-carboxamide]
remaining activity at 100 µM ([1]; 100 micromolar inhibitor, 100 = no change, read-out: residual kinase activity, p38d MAPK): 81% | remaining activity at 100 µM ([2]; 100 micromolar inhibitor, 100 = no change, read-out: residual kinase activity, RSK1): 48% | remaining activity at 100 µM ([3]; 100 micromolar inhibitor, 100 = no change, read-out: residual kinase activity, TTK): 28% | remaining activity at 100 µM ([4]; 100 micromolar inhibitor, 100 = no change, read-out: residual kinase activity, SYK): 102% | remaining activity at 100 µM ([5]; 100 micromolar inhibitor, 100 = no change, read-out: residual kinase activity, ERK2): 96% | remaining activity at 100 µM ([6]; 100 micromolar inhibitor, 100 = no change, read-out: residual kinase activity, JNK2): 104% | remaining activity at 100 µM ([7]; 100 micromolar inhibitor, 100 = no change, read-out: residual kinase activity, p38g MAPK): 93% | remaining activity at 100 µM ([8]; 100 micromolar inhibitor, 100 = no change, read-out: residual kinase activity, DYRK1A): 30% | remaining activity at 100 µM ([9]; 100 micromolar inhibitor, 100 = no change, read-out: residual kinase activity, PKCa): 81% | remaining activity at 100 µM ([10]; 100 micromolar inhibitor, 100 = no change, read-out: residual kinase activity, EPH-A2): 88% | remaining activity at 100 µM ([11]; 100 micromolar inhibitor, 100 = no change, read-out: residual kinase activity, PKBb): 26% | remaining activity at 100 µM ([12]; 100 micromolar inhibitor, 100 = no change, read-out: residual kinase activity, NEK6): 91% | residual kinase activity, CK2 ([13]; 100 micromolar inhibitor, 100 = no change): 35 | remaining activity at 100 µM ([14]; 100 micromolar inhibitor, 100 = no change, read-out: residual kinase activity, IGF-1R): 96% | remaining activity at 100 µM ([15]; 100 micromolar inhibitor, 100 = no change, read-out: residual kinase activity, SmMLCK): 21% | remaining activity at 100 µM ([16]; 100 micromolar inhibitor, 100 = no change, read-out: residual kinase activity, MSK1): 62% | remaining activity at 100 µM ([17]; 100 micromolar inhibitor, 100 = no change, read-out: residual kinase activity, ERK1): 102% | remaining activity at 100 µM ([18]; 100 micromolar inhibitor, 100 = no change, read-out: residual kinase activity, Lck): 88% | remaining activity at 100 µM ([19]; 100 micromolar inhibitor, 100 = no change, read-out: residual kinase activity, HER4): 50% | remaining activity at 100 µM ([20]; 100 micromolar inhibitor, 100 = no change, read-out: residual kinase activity, JAK2): 56% | remaining activity at 100 µM ([21]; 100 micromolar inhibitor, 100 = no change, read-out: residual kinase activity, PKA): 91%

O=C(Nc1nc2cc(O)ccc2s1)c1ccncc1 [Compound 03-11]
residual kinase activity, p38d MAPK [1]: 82 | residual kinase activity, RSK1 [2]: 83 | residual kinase activity, TTK [3]: 74 | residual kinase activity, SYK [4]: 75 | residual kinase activity, ERK2 [5]: 85 | residual kinase activity, JNK2 [6]: 93 | residual kinase activity, p38g MAPK [7]: 93 | residual kinase activity, DYRK1A [8]: 50 | residual kinase activity, PKCa [9]: 91 | residual kinase activity, EPH-A2 [10]: 84 | residual kinase activity, PKBb [11]: 82 | residual kinase activity, NEK6 [12]: 72 | residual kinase activity, CK2 [13, 22]: 68 | residual kinase activity, IGF-1R [14]: 107 | residual kinase activity, SmMLCK [15]: 63 | residual kinase activity, MSK1 [16]: 97 | residual kinase activity, ERK1 [17]: 88 | residual kinase activity, Lck [18]: 93 | residual kinase activity, HER4 [19]: 96 | residual kinase activity, JAK2 [20]: 66 | residual kinase activity, PKA [21]: 110

O=C(Nc1nc2ccc(O)cc2s1)c1ccccn1 [Compound 03-12]
residual kinase activity, p38d MAPK [1]: 77 | residual kinase activity, RSK1 [2]: 67 | residual kinase activity, TTK [3]: 36 | residual kinase activity, SYK [4]: 99 | residual kinase activity, ERK2 [5]: 88 | residual kinase activity, JNK2 [6]: 101 | residual kinase activity, p38g MAPK [7]: 89 | residual kinase activity, DYRK1A [8]: 33 | residual kinase activity, PKCa [9]: 101 | residual kinase activity, EPH-A2 [10]: 85 | residual kinase activity, PKBb [11]: 61 | residual kinase activity, NEK6 [12]: 98 | residual kinase activity, CK2 [13, 22]: 57 | residual kinase activity, IGF-1R [14]: 54 | residual kinase activity, SmMLCK [15]: 9 | residual kinase activity, MSK1 [16]: 90 | residual kinase activity, ERK1 [17]: 74 | residual kinase activity, Lck [18]: 82 | residual kinase activity, HER4 [19]: 33 | residual kinase activity, JAK2 [20]: 71 | residual kinase activity, PKA [21]: 97

O=C(Nc1nc2cc(O)ccc2s1)c1ccccn1 [Compound 03-13]
residual kinase activity, p38d MAPK [1]: 99 | residual kinase activity, RSK1 [2]: 70 | residual kinase activity, TTK [3]: 53 | residual kinase activity, SYK [4]: 106 | residual kinase activity, ERK2 [5]: 100 | residual kinase activity, JNK2 [6]: 103 | residual kinase activity, p38g MAPK [7]: 94 | residual kinase activity, DYRK1A [8]: 25 | residual kinase activity, PKCa [9]: 112 | residual kinase activity, EPH-A2 [10]: 81 | residual kinase activity, PKBb [11]: 60 | residual kinase activity, NEK6 [12]: 107 | residual kinase activity, CK2 [13, 22]: 78 | residual kinase activity, IGF-1R [14]: 84 | residual kinase activity, SmMLCK [15]: 37 | residual kinase activity, MSK1 [16]: 100 | residual kinase activity, ERK1 [17]: 97 | residual kinase activity, Lck [18]: 77 | residual kinase activity, HER4 [19]: 98 | residual kinase activity, JAK2 [20]: 98 | residual kinase activity, PKA [21]: 102
